The source made the active and inactive calls. How the calls were made is not given here.
The compounds below were run against Ubiquitin-conjugating enzyme E2 N (Homo sapiens) (UniProt P61088) (assay: NMR detection of UBE2N ligand binding – biophysical, purified protein (AID 1552)). Settings: NMR binding to purified UBE2N.
Ubiquitin-conjugating enzyme E2 N (Homo sapiens), sequence (P61088 whole entry, looked up): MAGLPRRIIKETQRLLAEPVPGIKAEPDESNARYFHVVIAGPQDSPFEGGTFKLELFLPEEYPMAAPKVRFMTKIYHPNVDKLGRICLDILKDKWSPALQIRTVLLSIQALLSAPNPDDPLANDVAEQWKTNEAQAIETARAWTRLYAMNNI
For CNC(=O)c1c(O)c2ccccc2[nH]c1=O, the Kd was > 4 mM (inactive). With COc1cc([C@@H]2c3cc4c(c(O)c3C[C@H]3COC(=O)[C@@H]32)OCO4)cc(OC)c1OC the Kd was > 4 mM (inactive). For COc1cc(-c2csc(C)n2)ccc1O, the Kd was > 4 mM (inactive). O=C(O)CN1C(=O)c2ccc(C(=O)O)cc2C1=O was tested, and the Kd was > 4 mM (inactive). For O=[N+]([O-])c1ccc(/C=N/c2ncn[nH]2)cc1, the Kd was > 4 mM (inactive). For C(=N\c1ncn[nH]1)/c1cccs1, the Kd was > 4 mM (inactive). For Cc1cc(C(=O)N2CCN(S(C)(=O)=O)CC2)cs1, the Kd was > 4 mM (inactive). With Cc1ccc(=O)[nH]c1 the Kd was > 4 mM (inactive). With O=c1cc(-c2ccc(O)cc2)oc2cc(O)cc(O)c12 the Kd was > 4 mM (inactive). Cn1c(SCC(N)=O)nc2ccccc2c1=O was tested, and the Kd was > 4 mM (inactive). With Cc1ccc(S(C)(=O)=O)s1 the Kd was > 4 mM (inactive). With COC(=O)C[C@@H]1C2(C)C(=O)[C@@H](CC3=C4CC(=O)O[C@@H](c5ccoc5)[C@]4(C)CCC32)[C@H](OC(C)=O)C1(C)C (stereo partly drawn) the Kd was > 4 mM (inactive). For Nc1ccncc1, the Kd was > 4 mM (inactive). CSc1ccccc1NC(=O)c1ccoc1C was tested, and the Kd was > 4 mM (inactive). For NS(=O)(=O)c1ccc2c3c(cccc13)C(=O)N2, the Kd was > 4 mM (inactive). With O=C(O)CCn1c(=O)oc2ccccc21 the Kd was > 4 mM (inactive). For COc1ccc(/C=C/c2cc(O)cc(O)c2)cc1, the Kd was > 4 mM (inactive). In the case of COC(=O)[C@]1(C)CCC[C@]2(C)c3ccc(C(C)C)cc3C(=O)CC12 (stereo partly drawn), the Kd is reported as > 4 mM (inactive). With O=C(NCc1ccccn1)c1ccccc1Cl the Kd was > 4 mM (inactive). With Nc1cc2ccccc2cn1 the Kd was > 4 mM (inactive). OCC1COc2ccccc2O1 (stereo not drawn) was tested, and the Kd was > 4 mM (inactive). For CC(=O)Nc1cccc(N2CCCC2=O)c1, the Kd was > 4 mM (inactive). Cc1nnc(SCC(=O)Nc2ccccc2)[nH]c1=O was tested, and the Kd was > 4 mM (inactive). CC(=O)Oc1ccc2c(c1)c(C(C)=O)c(C)n2C was tested, and the Kd was > 4 mM (inactive). In the case of NC(=O)c1ccc(SCC(=O)O)c([N+](=O)[O-])c1, the Kd is reported as > 4 mM (inactive). With O=C1c2ccccc2C(=O)c2c1ccc(O)c2O the Kd was > 4 mM (inactive). With COc1ccc2c(c1)O[C@@H]1COc3cc(OC)c(OC)cc3[C@@H]1C2=O the Kd was > 4 mM (inactive). In the case of CC(C)=NNC(=O)C(=O)Nc1ccc(F)cc1, the Kd is reported as > 4 mM (inactive). For Cc1cc(C(=O)Nc2sc(C)c(C)c2C#N)no1, the Kd was > 4 mM (inactive). In the case of O=C(Nc1ccc(O)cc1)N1CCOCC1, the Kd is reported as > 4 mM (inactive). For COc1cc(C)nc(N(CCO)CCO)n1, the Kd was > 4 mM (inactive). With COc1ccc(C2(CN)CCOCC2)cc1OC the Kd was > 4 mM (inactive). In the case of O=C(NCc1ccccn1)c1ccc(Br)s1, the Kd is reported as > 4 mM (inactive). For O=C1NC(=O)C(c2ccccc2)C(=O)N1, the Kd was > 4 mM (inactive). In the case of Cc1cc(C)nc(/N=C(/N)N2CCN(C)CC2)n1, the Kd is reported as > 4 mM (inactive). O=C(O)c1csc2ccccc12 was tested, and the Kd was > 4 mM (inactive). For COc1ccc(/C=C2\SC(N)=NC2=O)cc1, the Kd was > 4 mM (inactive). CCOC(=O)CNC(=O)CSc1nnc(C)c(=O)[nH]1 was tested, and the Kd was > 4 mM (inactive). In the case of NC(=O)C1CCN(C(=S)c2cccs2)CC1, the Kd is reported as > 4 mM (inactive). For CC(C)=CCOc1c2occc2cc2ccc(=O)oc12, the Kd was > 4 mM (inactive). For O=C(O[C@@H]1Cc2c(O)cc(O)cc2O[C@@H]1c1cc(=O)c(O)c2c(O)c(O)cc([C@H]3Oc4cc(O)cc(O)c4C[C@H]3O)c2c1)c1cc(O)c(O)c(O)c1, the Kd was > 4 mM (inactive). COc1ccc(-c2nc(C)sc2CC(=O)O)cc1 was tested, and the Kd was > 4 mM (inactive). With Nc1cccc(C(=O)c2ccccc2)c1 the Kd was > 4 mM (inactive). In the case of C=CCCCCCCCCCCCC(O)CC(O)COC(C)=O (stereo not drawn), the Kd is reported as > 4 mM (inactive). CC(C)C1COc2cc3oc(=O)ccc3cc2O1 (stereo not drawn) was tested, and the Kd was > 4 mM (inactive). With CC(C)c1c(O)ccc2c1CCC1[C@@](C)(CO)CCC[C@]21C (stereo partly drawn) the Kd was > 4 mM (inactive). With Cc1c(C)c2c(c(C)c1O)CCC(C)(CCCC(C)CCCC(C)CCCC(C)C)O2 (stereo not drawn) the Kd was > 4 mM (inactive). For NC(=O)CSc1nnnn1-c1ccccc1, the Kd was > 4 mM (inactive). With O=C1C2C3C=CC(C3)C2C(=O)N1c1ccccn1 (stereo not drawn) the Kd was > 4 mM (inactive). CN1CCC(NC(=O)c2c(F)cccc2Cl)CC1 was tested, and the Kd was > 4 mM (inactive). For OC12CC3CC(CC(C3)C1)C2, the Kd was > 4 mM (inactive). For COc1ccc2c(c1OC)C(=O)N(c1ncn[nH]1)C2, the Kd was > 4 mM (inactive). In the case of Cc1ccccc1CSc1nncn1N, the Kd is reported as > 4 mM (inactive). With OCc1ccc(-n2cccn2)cc1 the Kd was > 4 mM (inactive). For CCOc1ccc(-c2n[nH]c(=S)n2C)cc1, the Kd was > 4 mM (inactive). Cc1csc2nc3ccccc3c(=O)n12 was tested, and the Kd was > 4 mM (inactive). In the case of Cc1ccc(-c2c(C)n([O-])c3c([n+]2=O)CCCC3)o1, the Kd is reported as > 4 mM (inactive). OCC1CCCN2CCCCC12 (stereo not drawn) was tested, and the Kd was > 4 mM (inactive).
